Where a SMILES comes first, the peptide text is derived from it. Bridges are numbered along the chain shown (N, C = ends). The star is where a group is joined. Propionyl = CCC(=O)*

Results on two compounds are retold here after US4764589A, “[N-alpha-acyl,8-glycine, des-19-leucine]-calcitonin” (Rorer Pharmaceutical Corporation, priority 1987, dated 1988).

This test concerns serum calcium concentration.

Method: Biological Assay of Calcitonin Analogs in Vivo
The biological potency of [N-alpha-Propionyl, 8-glycine, des-19-leucine] salmon calcitonin was determined by comparing the reduction of serum calcium concentration which followed administration by graded doses of [N-alpha-Propionyl, Gly^8, des-Leu^19 ]-SCT and synthetic salmon calcitonin standard. Rats were divided into four groups of seven animals, and each group was assigend at random to a dose of standard or test solution. Low and high doses were chosen from the linear portion of the dose-response curve. For the salmon calcitonin standard, the values were 0.7 and 2.1 ng. peptide/100 g. BW. Peptides were given by subcutaneous injection (0.2 ml/100 g. BW) and blood was withdrawn 1 hour later for serum calcium determination. Sera are processed and analyzed within two hours of collection.

As for `CC(C)C[C@H](NC(=O)[C@H](CCCCN)NC(=O)CNC(=O)[C@H](CC(C)C)NC(=O)[C@@H](NC(=O)[C@@H]1CSSC[C@H](N)C(=O)N[C@@H](CO)C(=O)N[C@@H](CC(N)=O)C(=O)N[C@@H](CC(C)C)C(=O)N[C@@H](CO)C(=O)N[C@@H]([C@@H](C)O)C(=O)N1)C(C)C)C(=O)N[C@@H](CO)C(=O)N[C@@H](CCC(N)=O)C(=O)N[C@@H](CCC(=O)O)C(=O)N[C@@H](CC(C)C)C(=O)N[C@@H](Cc1c[nH]cn1)C(=O)N[C@@H](CCCCN)C(=O)N[C@@H](CC(C)C)C(=O)N[C@@H](CCC(N)=O)C(=O)N[C@H](C(=O)N[C@@H](Cc1ccc(O)cc1)C(=O)N1CCC[C@H]1C(=O)N[C@@H](CCCNC(=N)N)C(=O)N[C@H](C(=O)N[C@@H](CC(N)=O)C(=O)N[C@H](C(=O)NCC(=O)N[C@@H](CO)C(=O)NCC(=O)N[C@H](C(=O)N1CCC[C@H]1C(N)=O)[C@@H](C)O)[C@@H](C)O)[C@@H](C)O)[C@@H](C)O` [standard salmon calcitonin, Salmon calcitonin], where the note is “standard salmon calcitonin used in the assay”, the “biological potency of the standard, independently determined” value is “greater than 4,000 IU/mg”.

As to `CCC(=O)N[C@H]1CSSC[C@@H](C(=O)NCC(=O)N[C@@H](CC(C)C)C(=O)NCC(=O)N[C@@H](CCCCN)C(=O)N[C@@H](CC(C)C)C(=O)N[C@@H](CO)C(=O)N[C@@H](CCC(N)=O)C(=O)N[C@@H](CCC(=O)O)C(=O)N[C@@H](CC(C)C)C(=O)N[C@@H](Cc2c[nH]cn2)C(=O)N[C@@H](CCCCN)C(=O)N[C@@H](CCC(N)=O)C(=O)N[C@H](C(=O)N[C@@H](Cc2ccc(O)cc2)C(=O)N2CCC[C@H]2C(=O)N[C@@H](CCCNC(=N)N)C(=O)N[C@H](C(=O)N[C@@H](CC(N)=O)C(=O)N[C@H](C(=O)NCC(=O)N[C@@H](CO)C(=O)NCC(=O)N[C@H](C(=O)N2CCC[C@H]2C(N)=O)[C@@H](C)O)[C@@H](C)O)[C@@H](C)O)[C@@H](C)O)NC(=O)[C@H]([C@@H](C)O)NC(=O)[C@H](CO)NC(=O)[C@H](CC(C)C)NC(=O)[C@H](CC(N)=O)NC(=O)[C@H](CO)NC1=O` [[N alpha-propionyl, 8-glycine, des-19-leucine] salmon calcitonin] (Propionyl-CSNLSTCGLGKLSQELHKQTYPRTNTGSGTP-NH2; disulfide 1-7), the biological potency (rat, in vivo, sc) is on record as 9,700 IU/mg.
